Structures are written as SMILES. pIC50: −log10 of the molar value.

The nature of this assay: Revised Biochemical Assay: Compounds of the invention may be tested for in vitro activity in the following assay: A histone H4 derived peptide is used as substrate (amino acid sequence: […]N H2). Full-length PRMT5 enzyme (NCBI Reference sequence NP_006100.2) was co-expressed with His6-MEP50 in insect cells and purified via Nickel immobilized metal affinity and gel filtration chromatography (the enzyme).The 6 μL reactions are run in Greiner brand black 384-well low volume assay plates. All reactions contained assay buffer (phosphate buffered saline, 0.01% (v/v) Tween-20, 0.01% (w/v) albumin from chicken egg white, 1 mM Dithiothreitol, 1 μM peptide substrate, 1 μM S-Adenosyl methionine, and 15 ng/reaction enzyme, with the enzyme being omitted from negative control reactions. Compounds were added in a volume of 100 nL from dilution series prepared in DMSO, positive and negative control reactions receiving the same volume DMSO without compound. The plates were sealed with adhesive seals and incubated for 4 hours at 37 degree Celsius. Reaction progress was measured using the Transcreener EPIGEN methyltransferase assay (BellBrook Labs, Madison, Wis.) as recommended by the manufacturer. To each reaction 2 μL detection mix were added, containing coupling enzymes, fluorescence polarisation tracer, and AMP antibody. Plates were incubated for 90 minutes before being read on a PerkinElmer EnVision plate reader in fluorescence polarisation mode. A general note: Size exclusion chromatography separates by hydrodynamic size, large species first.
For orientation: pIC50 means the IC50 on a negative log10 scale, so that one unit is a factor of ten. A higher pIC50 goes with a low IC50. With `COC(=O)N1[C@@H]2CC[C@H]1CC(Oc1cc(C(=O)NC[C@@H](O)[C@@H]3Cc4ccccc4CN3)ccn1)C2` (stereo partly drawn), the pIC50 is 7.42.
Regarding `Cc1ccc(C(=O)NC[C@@H](O)[C@@H]2Cc3ccccc3CN2)cn1`, the pIC50 was 5.33.
Then `O=C(NC[C@@H](O)[C@@H]1Cc2ccccc2CN1)c1ccc2[nH]ncc2c1`, with 5.56.

These data come from ChEMBL document CHEMBL5727426, “Tetrahydroisoquinoline derived PRMT5-inhibitors” (2019).
